Data on one molecule can be found in patent publication US20180179166A1, “SMALL MOLECULE INHIBITORS OF GP120-MEDIATED HIV INFECTION AND METHODS OF USE” (ViroCarb Inc., priority 2014, published 2018).

For the experiment, the target named is R5 gp120 (Human immunodeficiency virus type 1 group M subtype B, UniProt P35961). The settings on record: CD4/CCR5 transfected U87 cells; 20 μg/mL gp120; western blot. The method, then: Cell bound R5 gp120 was detected by western blot. […] Lanes 1: cells alone; Cells treated with 2: 20 μg/mL gp120; 3: 20 μg/mL gp120+20 μM adaGb Gb3; 4: 20 μg/mL gp120+50 μM ada Gb3; 5: 20 μg/mL gp120+150 μM ada Gb3; 6: 20 μg/mL gp120+5 μg/mL solCD4; 7: 20 μg/mL gp120+5 μg/mL solCD4+20 μM ada Gb3; 8: 20 μg/mL gp120+5 μg/mL solCD4+50 μM ada Gb3; 9: 20 μg/mL gp120+5 μg/mL solCD4+150 μM ada Gb3; 10: 20 μg/mL gp120+50 μM.

Consider `CCCCCCCCCCCCC/C=C/[C@@H](O)[C@H](CO[C@@H]1O[C@H](CO)[C@@H](O[C@@H]2O[C@H](CO)[C@H](O[C@H]3O[C@H](CO)[C@H](O)[C@H](O)[C@H]3O)[C@H](O)[C@H]2O)[C@H](O)[C@H]1O)NC(=O)CC12CC3CC(CC(C3)C1)C2` [AdamantylGb3], for which the “binding of R5 gp120 to CCR5 of cells after pretreatment of gp120” value is recorded as “reduces its binding to CCR5 of cells”.
